Laboratory results from PubChem BioAssay AID1259407 (Chemical Carcinogenesis Research Information System (CCRIS), 2018).
Activity calls are given as the source filed them. The rule behind the calls is not given here.

System: CCRIS mutagenicity, Ames/micronucleus/aberration tests
Assay: CCRIS mutagenicity studies
[1] = Test System: AMES SALMONELLA TYPHIMURIUM, Strain/Indicator: TA98, Metabolic Activation: NONE, Method: PREINCUBATION
[2] = Test System: AMES SALMONELLA TYPHIMURIUM, Strain/Indicator: TA100, Metabolic Activation: NONE, Method: PREINCUBATION
[3] = Test System: AMES SALMONELLA TYPHIMURIUM, Strain/Indicator: TA1535, Metabolic Activation: NONE, Method: PREINCUBATION
[4] = Test System: AMES SALMONELLA TYPHIMURIUM, Strain/Indicator: TA1537, Metabolic Activation: NONE, Method: PREINCUBATION
[5] = Test System: AMES SALMONELLA TYPHIMURIUM, Strain/Indicator: TA98, Metabolic Activation: NONE, Method: STANDARD PLATE
[6] = Test System: AMES SALMONELLA TYPHIMURIUM, Strain/Indicator: TA100, Metabolic Activation: NONE, Method: STANDARD PLATE

CCCCCCCCCCCCCOC(=O)c1ccccc1C(=O)OCCCCCCCCCCCCC
mutagenic call (Test System: AMES SALMONELLA TYPHIMURIUM, Strain/Indicator: TA98, Metabolic Activation: HAMSTER, LIVER, S-9, AROCLOR 1254 (10%), Method: PREINCUBATION): inactive; negative
mutagenic call [1]: inactive; negative
mutagenic call (Test System: AMES SALMONELLA TYPHIMURIUM, Strain/Indicator: TA98, Metabolic Activation: RAT, LIVER, S-9, AROCLOR 1254 (10%), Method: PREINCUBATION): inactive; negative
mutagenic call (Test System: AMES SALMONELLA TYPHIMURIUM, Strain/Indicator: TA100, Metabolic Activation: HAMSTER, LIVER, S-9, AROCLOR 1254 (10%), Method: PREINCUBATION): inactive; negative
mutagenic call [2]: inactive; negative
mutagenic call (Test System: AMES SALMONELLA TYPHIMURIUM, Strain/Indicator: TA100, Metabolic Activation: RAT, LIVER, S-9, AROCLOR 1254 (10%), Method: PREINCUBATION): inactive; negative
mutagenic call (Test System: AMES SALMONELLA TYPHIMURIUM, Strain/Indicator: TA1535, Metabolic Activation: HAMSTER, LIVER, S-9, AROCLOR 1254 (10%), Method: PREINCUBATION): inactive; negative
mutagenic call [3]: inactive; negative
mutagenic call (Test System: AMES SALMONELLA TYPHIMURIUM, Strain/Indicator: TA1535, Metabolic Activation: RAT, LIVER, S-9, AROCLOR 1254 (10%), Method: PREINCUBATION): inactive; negative
mutagenic call (Test System: AMES SALMONELLA TYPHIMURIUM, Strain/Indicator: TA1537, Metabolic Activation: HAMSTER, LIVER, S-9, AROCLOR 1254 (10%), Method: PREINCUBATION): inactive; negative
mutagenic call [4]: inactive; negative
mutagenic call (Test System: AMES SALMONELLA TYPHIMURIUM, Strain/Indicator: TA1537, Metabolic Activation: RAT, LIVER, S-9, AROCLOR 1254 (10%), Method: PREINCUBATION): inactive; negative

O=[N+]([O-])c1ccc(Br)c([N+](=O)[O-])c1
mutagenic call (Test System: AMES SALMONELLA TYPHIMURIUM, Strain/Indicator: TA98(1,8-DNP6), Metabolic Activation: NONE, Method: PREINCUBATION): active; positive
mutagenic call (Test System: AMES SALMONELLA TYPHIMURIUM, Strain/Indicator: TA98(NR), Metabolic Activation: NONE, Method: PREINCUBATION): active; positive
mutagenic call [1]: active; positive
mutagenic call (Test System: AMES SALMONELLA TYPHIMURIUM, Strain/Indicator: TA100(NR), Metabolic Activation: NONE, Method: PREINCUBATION): active; positive
mutagenic call (Test System: AMES SALMONELLA TYPHIMURIUM, Strain/Indicator: TA100/GSH-, Metabolic Activation: NONE, Method: PREINCUBATION): active; positive
mutagenic call [2]: active; positive

OC1=C2O[C@@H]2CC[C@H]1O
mutagenic call (Test System: CHINESE HAMSTER V-79, Strain/Indicator: V-79/6-THIOGUANINE, Metabolic Activation: NONE): active; positive

COc1cc(C[C@@H](CO)[C@H](CO)Cc2ccc(O)c(OC)c2)ccc1O
mutagenic call (Test System: CHINESE HAMSTER V79 CELLS, Strain/Indicator: V79 CELLS (HPRT)/6-THIOGUANINE, Metabolic Activation: NONE, Method: SUSPENSION/PLATE): inactive; negative
mutagenic call (Test System: CHINESE HAMSTER V-79, Strain/Indicator: V-79 (HPRT)/6-THIOGUANINE, Metabolic Activation: NONE): inactive; negative

O[C@@H]1C=Cc2c(ccc3c2ccc2ccccc23)[C@H]1O
mutagenic call [5]: inactive; negative
mutagenic call (Test System: AMES SALMONELLA TYPHIMURIUM, Strain/Indicator: TA100, Metabolic Activation: EPITHELIAL CELL-MEDIATED, AROCLOR 1254, Method: PREINCUBATION): active; positive
mutagenic call (Test System: AMES SALMONELLA TYPHIMURIUM, Strain/Indicator: TA100, Metabolic Activation: EPITHELIAL CELL-MEDIATED, Method: PREINCUBATION): inactive; negative
mutagenic call (Test System: AMES SALMONELLA TYPHIMURIUM, Strain/Indicator: TA100, Metabolic Activation: KUPFFER CELL-MEDIATED, AROCLOR 1254, Method: PREINCUBATION): active; positive
mutagenic call (Test System: AMES SALMONELLA TYPHIMURIUM, Strain/Indicator: TA100, Metabolic Activation: KUPFFER CELL-MEDIATED, Method: PREINCUBATION): inactive; negative
mutagenic call [6]: inactive; negative
mutagenic call (Test System: AMES SALMONELLA TYPHIMURIUM, Strain/Indicator: TA100, Metabolic Activation: PARENCHYMAL CELL-MEDIATED, AROCLOR 1254, Method: PREINCUBATION): active; positive
mutagenic call (Test System: AMES SALMONELLA TYPHIMURIUM, Strain/Indicator: TA100, Metabolic Activation: PARENCHYMAL CELL-MEDIATED, NADPH, Method: PREINCUBATION): active; positive
mutagenic call (Test System: AMES SALMONELLA TYPHIMURIUM, Strain/Indicator: TA100, Metabolic Activation: PARENCHYMAL CELL-MEDIATED, Method: PREINCUBATION): inactive; negative
mutagenic call (Test System: AMES SALMONELLA TYPHIMURIUM, Strain/Indicator: TA100, Metabolic Activation: RAT, LIVER, S-9, AROCLOR 1254, Method: STANDARD PLATE): active; positive

COC(=O)C1=C(C)NC(C)=C(C(=O)OCC(C)=O)C1c1ccccc1[N+](=O)[O-] (stereo unspecified)
mutagenic call [1]: inactive; negative
mutagenic call (Test System: AMES SALMONELLA TYPHIMURIUM, Strain/Indicator: TA98, Metabolic Activation: S-9, Method: PREINCUBATION): inactive; negative
mutagenic call [2]: inactive; negative
mutagenic call (Test System: AMES SALMONELLA TYPHIMURIUM, Strain/Indicator: TA100, Metabolic Activation: S-9, Method: PREINCUBATION): inactive; negative
mutagenic call [3]: inactive; negative
mutagenic call (Test System: AMES SALMONELLA TYPHIMURIUM, Strain/Indicator: TA1535, Metabolic Activation: S-9, Method: PREINCUBATION): inactive; negative
mutagenic call [4]: inactive; negative
mutagenic call (Test System: AMES SALMONELLA TYPHIMURIUM, Strain/Indicator: TA1537, Metabolic Activation: S-9, Method: PREINCUBATION): inactive; negative
mutagenic call (Test System: E.COLI, Strain/Indicator: WP2 UVRA, Metabolic Activation: NONE, Method: PREINCUBATION): inactive; negative
mutagenic call (Test System: E.COLI, Strain/Indicator: WP2 UVRA, Metabolic Activation: S-9, Method: PREINCUBATION): inactive; negative

O=NN(CC(=O)O)CC(=O)O
mutagenic call [5]: inactive; negative
mutagenic call (Test System: AMES SALMONELLA TYPHIMURIUM, Strain/Indicator: TA98, Metabolic Activation: RAT, LIVER, S-9, Method: STANDARD PLATE): inactive; negative
mutagenic call [2]: active; positive
mutagenic call [6]: inactive; negative
mutagenic call (Test System: AMES SALMONELLA TYPHIMURIUM, Strain/Indicator: TA100, Metabolic Activation: RAT, LIVER, S-9, Method: STANDARD PLATE): inactive; negative
mutagenic call (Test System: AMES SALMONELLA TYPHIMURIUM, Strain/Indicator: TA1535, Metabolic Activation: NONE, Method: STANDARD PLATE): inactive; negative
mutagenic call (Test System: AMES SALMONELLA TYPHIMURIUM, Strain/Indicator: TA1535, Metabolic Activation: RAT, LIVER, S-9, Method: STANDARD PLATE): inactive; negative
mutagenic call (Test System: AMES SALMONELLA TYPHIMURIUM, Strain/Indicator: TA1537, Metabolic Activation: NONE, Method: STANDARD PLATE): inactive; negative
mutagenic call (Test System: AMES SALMONELLA TYPHIMURIUM, Strain/Indicator: TA1537, Metabolic Activation: RAT, LIVER, S-9, Method: STANDARD PLATE): inactive; negative
mutagenic call (Test System: AMES SALMONELLA TYPHIMURIUM, Strain/Indicator: TA1538, Metabolic Activation: NONE, Method: STANDARD PLATE): inactive; negative
mutagenic call (Test System: AMES SALMONELLA TYPHIMURIUM, Strain/Indicator: TA1538, Metabolic Activation: RAT, LIVER, S-9, Method: STANDARD PLATE): inactive; negative

C[C@H]1C=C(C=O)C(C=O)=C[C@]2(O)CC(C)(C)C[C@H]12
mutagenic call [5]: active; positive
mutagenic call [6]: active; positive
mutagenic call (Test System: AMES SALMONELLA TYPHIMURIUM, Strain/Indicator: TA2637, Metabolic Activation: NONE, Method: STANDARD PLATE): inactive; negative

CC(C(=O)O)c1cccc(C(=O)c2ccccc2)c1 (stereo unspecified)
mutagenic call (Test System: AMES SALMONELLA TYPHIMURIUM, Strain/Indicator: TA97A, Metabolic Activation: NONE, Method: STANDARD PLATE): inactive; negative
mutagenic call (Test System: AMES SALMONELLA TYPHIMURIUM, Strain/Indicator: TA97A, Metabolic Activation: RAT, LIVER, S-9, PHENOBARBITAL, Method: STANDARD PLATE): inactive; negative
mutagenic call [6]: inactive; negative
mutagenic call (Test System: AMES SALMONELLA TYPHIMURIUM, Strain/Indicator: TA100, Metabolic Activation: RAT, LIVER, S-9, PHENOBARBITAL, Method: STANDARD PLATE): inactive; negative
mutagenic call (Test System: AMES SALMONELLA TYPHIMURIUM, Strain/Indicator: TA102, Metabolic Activation: NONE, Method: STANDARD PLATE): inactive; negative
mutagenic call (Test System: AMES SALMONELLA TYPHIMURIUM, Strain/Indicator: TA102, Metabolic Activation: RAT, LIVER, S-9, PHENOBARBITAL, Method: STANDARD PLATE): inactive; negative
